# Assay results taken from patent US20240166626A1, “Compounds and Methods for Preventing, Treating, or Ameliorating Airway Disease” (THOMAS JEFFERSON UNIVERSITY, priority 2021, published 2024).
# Target: β1AR (Homo sapiens, UniProt P08588)
# Assay: BRET analysis of β-arrestin2 interaction with β1AR in HEK 293 cells
# Format: cell-based
# Details: 10 μM DFPQ, FIG. 2B
# Procedure: FIGS. 2A-2C: […] Cells were read every 2 min post agonist addition. […]® ADRB2 cells (DiscoveRx) were maintained with the AssayCompleteTM Cell Culture kit (DiscoveRx catalog #92-[…]). […] HEK 293 cells stably overexpressing β2AR included 250 μg/ml G418. Cells were incubated at 37° C. in a humidified incubator with 5% CO2. […] Cells were read every three minutes for 18 minutes on a PolarStar Optima plate reader (BMG) to establish peak signal. […] Plates were incubated in the dark at room temperature for one hour. Luminescence was determined at room temperature (23-25° C.) on a PolarStar Optima plate reader (BMG). […] Screening data analysis and IC50 determination. […] Relative assay bias was calculated from the ratio of normalized cAMP and arrestin recruitment responses. […] BRET was measured using a Tecan Infinite F500 microplate reader. […] Bound [35 S]GTPγS was collected by rapid filtration on GF/B filters, washed 4 times with 4 ml of cold GTPγS wash buffer and analyzed by liquid scintillation counting. […] Immunoprecipitated proteins were separated by SDS-PAGE and analyzed by western blot using a β2AR C-terminal tail or phospho-specific antibody. […] Band intensity was measured by densitometry using ImageJ. […] Absorbance was then measured on a plate reader at 405 nm. […] Lungs were monitored for appropriate inflation. […] Images were analyzed post hoc using the ImageJ software. […] Cell-free area was quantitated using ImageJ. […]
# β1AR, sequence (P08588 whole entry): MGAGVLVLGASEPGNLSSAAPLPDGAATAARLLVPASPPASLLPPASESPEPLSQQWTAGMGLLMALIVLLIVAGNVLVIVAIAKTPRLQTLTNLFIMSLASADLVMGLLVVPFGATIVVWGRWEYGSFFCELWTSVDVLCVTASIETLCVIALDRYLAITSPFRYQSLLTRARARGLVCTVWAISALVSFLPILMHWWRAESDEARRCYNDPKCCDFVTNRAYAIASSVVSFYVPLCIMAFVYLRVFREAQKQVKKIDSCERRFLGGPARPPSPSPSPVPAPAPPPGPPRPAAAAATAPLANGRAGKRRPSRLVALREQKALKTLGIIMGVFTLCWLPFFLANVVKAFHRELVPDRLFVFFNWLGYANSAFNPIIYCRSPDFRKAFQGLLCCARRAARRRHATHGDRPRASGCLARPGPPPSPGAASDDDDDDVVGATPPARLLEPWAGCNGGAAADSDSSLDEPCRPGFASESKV
smiles,measurement,value
"Fc1ccc(Nc2nc(NC3CCCCC3)c3ccccc3n2)cc1F [DFPQ, N^4-cyclohexyl-N^2-(3,4-difluorophenyl)quinazoline-2,4-diamine]",β-arrestin2 interaction with the β1AR,not significantly inhibited
